The record followed here is article PMC4767141, “Discovery of Potent, Orally Bioavailable, Small-Molecule Inhibitors of WNT Signaling from a Cell-Based Pathway Screen” (Journal of Medicinal Chemistry, 2015).

In experiment [1] the target is T1, MKK6 (Homo sapiens, UniProt P52564).
T1 construct: purchased Millipore KinaseProfiler (kinases); Cerep (receptors and ion channels)
The experiment in a line: Millipore kinase panel. To be noted: read-out: % Control. Format: biochemical.

Experiment [2] deals with TCF1 or TCF4. In words: Endogenous TCF1 and TCF4 levels in COLO205-F1756 clone 4. Format: cell-based, human. To be noted: COLO205-F1756 clone 4, 350 nM. An excerpt:
Supplementary Figure S2. Levels of TCF1 and TCF4 in response to treatment of COLO205-
F1756 clone 4 (an APC-mutant human colorectal cancer cell line engineered to express a
(1 picture or pasted object on this page, not shown here)

The target of experiment [3] is T2, CDK1/CYCLINB (Homo sapiens, UniProt P06493).
T2 construct: purchased Millipore KinaseProfiler (kinases); Cerep (receptors and ion channels)
T2 sequence (P06493 whole entry): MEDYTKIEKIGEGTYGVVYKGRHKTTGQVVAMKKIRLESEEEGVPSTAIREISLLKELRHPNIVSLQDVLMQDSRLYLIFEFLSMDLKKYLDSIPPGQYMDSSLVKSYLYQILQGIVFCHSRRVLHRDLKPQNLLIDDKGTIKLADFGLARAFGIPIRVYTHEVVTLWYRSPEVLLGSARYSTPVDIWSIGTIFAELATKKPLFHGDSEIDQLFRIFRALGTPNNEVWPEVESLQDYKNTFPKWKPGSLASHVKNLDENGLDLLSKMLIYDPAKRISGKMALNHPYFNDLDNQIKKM
T2 sequence (P14635 whole entry partner): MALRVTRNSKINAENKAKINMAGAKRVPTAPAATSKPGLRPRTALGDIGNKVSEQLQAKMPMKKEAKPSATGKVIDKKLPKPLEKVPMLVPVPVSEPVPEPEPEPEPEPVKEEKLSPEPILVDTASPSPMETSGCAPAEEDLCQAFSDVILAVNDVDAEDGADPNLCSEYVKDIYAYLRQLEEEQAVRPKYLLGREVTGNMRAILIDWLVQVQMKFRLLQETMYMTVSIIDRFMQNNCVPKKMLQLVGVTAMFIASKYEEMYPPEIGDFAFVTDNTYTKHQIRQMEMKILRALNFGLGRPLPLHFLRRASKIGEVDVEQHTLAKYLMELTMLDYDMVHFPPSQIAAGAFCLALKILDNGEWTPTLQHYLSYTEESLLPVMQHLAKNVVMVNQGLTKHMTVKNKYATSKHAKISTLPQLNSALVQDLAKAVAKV
The experiment in a line: Millipore kinase panel. Type of experiment: biochemical. To be noted: read-out: % Control.

Experiment [4] deals with T3, CK1DELTA (Homo sapiens, UniProt P48730).
T3 construct: purchased Millipore KinaseProfiler (kinases); Cerep (receptors and ion channels)
In words: Millipore kinase panel. Format: biochemical. To be noted: read-out: % Control.

Experiment [5] has as its target T4, EGFR(L858R) (Homo sapiens, UniProt P00533, L858R).
T4 construct: purchased Millipore KinaseProfiler (kinases); Cerep (receptors and ion channels)
In words: Millipore kinase panel. Format: biochemical. To be noted: read-out: % Control.

The target of experiment [6] is T5, IR (Homo sapiens, UniProt P06213).
T5 construct: purchased Millipore KinaseProfiler (kinases); Cerep (receptors and ion channels)
The experiment in a line: Millipore kinase panel. Type of experiment: biochemical. To be noted: read-out: % Control.

The target in experiment [7] is T6, PI3K DELTA (Homo sapiens, UniProt O00329).
T6 construct: purchased Millipore KinaseProfiler (kinases); Cerep (receptors and ion channels)
The experiment in a line: Millipore kinase panel. Format: biochemical. To be noted: read-out: % Control.

Experiment [8] deals with T7, PKCETA (Homo sapiens, UniProt P24723).
T7 construct: purchased Millipore KinaseProfiler (kinases); Cerep (receptors and ion channels)
The experiment in a line: Millipore kinase panel. As to conditions: read-out: % Control. Format: biochemical.

Experiment [9] has as its target T8, CAMKIIGAMMA (Homo sapiens, UniProt Q13555).
T8 construct: purchased Millipore KinaseProfiler (kinases); Cerep (receptors and ion channels)
The experiment in a line: Millipore kinase panel. Format: biochemical. To be noted: read-out: % Control.

Experiment [10] deals with T9, MER (Homo sapiens, UniProt Q12866).
T9 construct: purchased Millipore KinaseProfiler (kinases); Cerep (receptors and ion channels)
T9 sequence (Q12866 21-999): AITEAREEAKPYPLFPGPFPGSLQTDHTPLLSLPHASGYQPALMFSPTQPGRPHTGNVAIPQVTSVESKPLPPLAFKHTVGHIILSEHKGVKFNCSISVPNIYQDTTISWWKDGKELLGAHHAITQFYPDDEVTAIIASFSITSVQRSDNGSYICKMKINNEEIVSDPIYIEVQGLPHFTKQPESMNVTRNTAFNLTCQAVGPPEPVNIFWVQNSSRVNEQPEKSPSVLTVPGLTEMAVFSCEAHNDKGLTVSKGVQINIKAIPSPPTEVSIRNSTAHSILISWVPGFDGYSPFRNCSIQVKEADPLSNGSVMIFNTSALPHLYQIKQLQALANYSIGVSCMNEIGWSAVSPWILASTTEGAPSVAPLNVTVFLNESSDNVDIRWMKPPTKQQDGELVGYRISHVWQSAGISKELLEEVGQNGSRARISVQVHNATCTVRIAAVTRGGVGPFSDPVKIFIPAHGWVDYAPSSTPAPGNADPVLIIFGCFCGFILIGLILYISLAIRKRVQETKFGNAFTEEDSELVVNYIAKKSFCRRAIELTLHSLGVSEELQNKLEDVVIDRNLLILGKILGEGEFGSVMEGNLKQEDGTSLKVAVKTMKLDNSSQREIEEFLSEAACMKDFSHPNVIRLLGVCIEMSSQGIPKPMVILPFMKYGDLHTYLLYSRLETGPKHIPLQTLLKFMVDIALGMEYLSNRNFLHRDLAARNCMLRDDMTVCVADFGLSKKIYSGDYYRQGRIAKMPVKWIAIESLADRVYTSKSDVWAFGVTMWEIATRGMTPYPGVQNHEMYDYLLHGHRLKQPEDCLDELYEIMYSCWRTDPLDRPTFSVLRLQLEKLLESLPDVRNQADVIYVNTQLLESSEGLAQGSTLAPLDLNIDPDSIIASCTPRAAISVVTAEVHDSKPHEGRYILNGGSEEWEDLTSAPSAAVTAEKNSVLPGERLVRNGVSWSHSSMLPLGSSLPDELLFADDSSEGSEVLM
In words: Millipore kinase panel. Type of experiment: biochemical. To be noted: read-out: % Control.

Experiment [11] concerns the target T10, CKIT(V654A) (Homo sapiens, UniProt P10721, V654A).
T10 construct: purchased Millipore KinaseProfiler (kinases); Cerep (receptors and ion channels)
In words: Millipore kinase panel. Format: biochemical. To be noted: read-out: % Control.

For experiment [12], the target named is T11, FGFR1(V561M) (Homo sapiens, UniProt P11362, V561M).
T11 construct: purchased Millipore KinaseProfiler (kinases); Cerep (receptors and ion channels)
T11 sequence (P11362 22-822 V561M): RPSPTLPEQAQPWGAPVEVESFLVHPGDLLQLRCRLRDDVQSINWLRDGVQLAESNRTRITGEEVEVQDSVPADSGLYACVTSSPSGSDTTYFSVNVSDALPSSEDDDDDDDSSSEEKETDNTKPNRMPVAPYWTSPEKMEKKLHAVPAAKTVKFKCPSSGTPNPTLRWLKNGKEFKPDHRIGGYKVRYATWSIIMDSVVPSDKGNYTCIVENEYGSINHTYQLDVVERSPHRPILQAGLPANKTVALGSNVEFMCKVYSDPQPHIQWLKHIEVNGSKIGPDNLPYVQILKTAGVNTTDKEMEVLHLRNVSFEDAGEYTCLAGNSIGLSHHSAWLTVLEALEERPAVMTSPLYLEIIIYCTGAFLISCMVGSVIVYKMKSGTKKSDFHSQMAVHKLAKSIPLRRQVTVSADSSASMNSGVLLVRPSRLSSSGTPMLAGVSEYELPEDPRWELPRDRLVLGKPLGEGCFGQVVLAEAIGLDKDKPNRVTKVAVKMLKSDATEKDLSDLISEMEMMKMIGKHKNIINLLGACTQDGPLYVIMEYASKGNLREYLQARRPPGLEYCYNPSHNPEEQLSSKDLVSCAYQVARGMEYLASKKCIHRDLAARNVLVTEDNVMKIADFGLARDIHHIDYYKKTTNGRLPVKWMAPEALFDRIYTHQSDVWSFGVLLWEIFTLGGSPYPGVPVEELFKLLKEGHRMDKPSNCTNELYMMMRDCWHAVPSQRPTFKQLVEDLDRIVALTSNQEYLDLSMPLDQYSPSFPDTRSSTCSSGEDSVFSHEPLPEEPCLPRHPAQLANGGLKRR
In words: Millipore kinase panel. As to conditions: read-out: % Control. Type of experiment: biochemical.

The target in experiment [13] is T12, ABL (H396P) (Homo sapiens, UniProt P00519, H396P).
T12 construct: purchased Millipore KinaseProfiler (kinases); Cerep (receptors and ion channels)
In words: Millipore kinase panel. To be noted: read-out: % Control. Type of experiment: biochemical.

Experiment [14] addresses T13, RET (V804L) (Homo sapiens, UniProt P07949, V804L).
T13 construct: purchased Millipore KinaseProfiler (kinases); Cerep (receptors and ion channels)
The experiment in a line: Millipore kinase panel. Type of experiment: biochemical. To be noted: read-out: % Control.

In experiment [15] the target is T14, RET(V804M) (Homo sapiens, UniProt P07949, V804M).
T14 construct: purchased Millipore KinaseProfiler (kinases); Cerep (receptors and ion channels)
T14 sequence (P07949 29-1114 V804M): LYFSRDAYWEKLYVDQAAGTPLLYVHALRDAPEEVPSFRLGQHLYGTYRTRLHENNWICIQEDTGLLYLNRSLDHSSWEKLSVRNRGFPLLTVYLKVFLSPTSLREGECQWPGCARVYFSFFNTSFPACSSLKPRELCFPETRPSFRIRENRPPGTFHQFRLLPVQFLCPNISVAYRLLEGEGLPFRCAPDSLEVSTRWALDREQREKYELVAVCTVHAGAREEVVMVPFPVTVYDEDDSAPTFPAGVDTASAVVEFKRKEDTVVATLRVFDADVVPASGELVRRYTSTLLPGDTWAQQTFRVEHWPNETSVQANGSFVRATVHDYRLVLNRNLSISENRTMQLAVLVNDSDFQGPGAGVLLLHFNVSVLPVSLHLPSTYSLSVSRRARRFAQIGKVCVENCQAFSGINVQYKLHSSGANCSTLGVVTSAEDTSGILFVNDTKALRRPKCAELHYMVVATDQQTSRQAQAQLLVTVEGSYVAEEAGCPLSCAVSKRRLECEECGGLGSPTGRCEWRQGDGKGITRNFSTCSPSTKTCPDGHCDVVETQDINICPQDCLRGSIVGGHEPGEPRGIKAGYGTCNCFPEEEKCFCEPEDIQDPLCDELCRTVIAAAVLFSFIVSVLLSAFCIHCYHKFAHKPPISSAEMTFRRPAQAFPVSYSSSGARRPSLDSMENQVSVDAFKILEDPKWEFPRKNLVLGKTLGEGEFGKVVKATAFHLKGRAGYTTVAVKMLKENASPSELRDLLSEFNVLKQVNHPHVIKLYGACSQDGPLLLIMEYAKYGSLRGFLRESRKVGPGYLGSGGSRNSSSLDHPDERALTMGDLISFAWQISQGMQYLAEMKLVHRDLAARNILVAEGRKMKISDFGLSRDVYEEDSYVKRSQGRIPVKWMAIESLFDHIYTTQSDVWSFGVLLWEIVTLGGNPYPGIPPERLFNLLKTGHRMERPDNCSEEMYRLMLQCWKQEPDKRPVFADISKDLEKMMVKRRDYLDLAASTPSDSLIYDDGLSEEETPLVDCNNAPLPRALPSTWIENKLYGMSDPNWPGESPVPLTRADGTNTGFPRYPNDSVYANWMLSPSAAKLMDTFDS
The experiment in a line: Millipore kinase panel. To be noted: read-out: % Control. Type of experiment: biochemical.

In experiment [16] the test system is CK1(Y). The experiment in a line: Millipore kinase panel. Type of experiment: biochemical. As to conditions: 1 μM, ATP at Km. As to the method:
(§1) Supplementary Table S3. Activity of compound 44 tested 1 μM across a panel of 209 non-mutated kinases (Millipore Panel: data expressed as percentage control response versus each kinase tested at its respective Km for ATP). No inhibition was considered sufficient to warrant follow-up with IC50 determination.
(§2) % Inhibition of % Inhibition of […]
(§3) α1 (non-selective) (antagonist radioligand) 8 NTS1 (NT1) (h) (agonist radioligand) -8 α2 (non-selective) (antagonist radioligand) 0 δ2 (DOP) (h) (agonist radioligand) 22 β1 (h) (agonist radioligand) 5 κ (KOP) (agonist radioligand) 72 […]
(§4) AT1 (h) (antagonist radioligand) 8 NOP (ORL1) (h) (agonist radioligand) 3 BZD (central) (agonist radioligand) 18 TP (h) (TXA2/PGH2) (antagonist radioligand) NT B2 (h) (agonist radioligand) 0 5-HT1A (h) (agonist radioligand) 19 […]
(§5) CCK1 (CCKA) (h) (agonist radioligand) 2 5-HT2A (h) (antagonist radioligand) 1 D1 (h) (antagonist radioligand) 7 5-HT2B (h) (agonist radioligand) 6
(§6) D2S (h) (antagonist radioligand) 5 5-HT3 (h) (antagonist radioligand) 9 ETA (h) (agonist radioligand) -9 5-HT5a (h) (agonist radioligand) 1
(§7) GABA (non-selective) (agonist radioligand) 5 5-HT6 (h) (agonist radioligand) 3 GAL2 (h) (agonist radioligand) 2 5-HT7 (h) (agonist radioligand) 1
(§8) CXCR2 (IL-8B) (h) (agonist radioligand) -6 sst (non-selective) (agonist radioligand) 4 CCR1 (h) (agonist radioligand) -4 VPAC1 (VIP1) (h) (agonist radioligand) 0 H1 (h) (antagonist radioligand) 16 V1a (h) (agonist radioligand) -7
(§9) H2 (h) (antagonist radioligand) -2 Ca2+ channel (L, verapamil site) (phenylalkylamine) (antagonist radioligand) 7 MC4 (h) (agonist radioligand) 4 KV channel (antagonist radioligand) -13 MT1 (ML1A) (h) (agonist radioligand) 34 SKCa channel (antagonist radioligand) 3 M1 (h) (antagonist radioligand) 21 Na+ channel (site 2) (antagonist radioligand) 29 M2 (h) (antagonist radioligand) 38 Cl- channel (GABA-gated) (antagonist radioligand) 31 M3 (h) (antagonist radioligand) 46 norepinephrine transporter (h) (antagonist radioligand) 14 NK2 (h) (agonist radioligand) -17 dopamine transporter (h) (antagonist radioligand) 40 5-HT transporter (h) (antagonist radioligand) 70 […]
(§10) receptors, ion channels and enzymes (CEREP). Results are expressed as percent inhibition of control specific binding. […]
(§11) kinases (Millipore Panel: data expressed as percentage control response versus each kinase tested […]
(§12) at its respective Km for ATP).
(§13) Supplementary Figure S1. Dose-dependent reduction of endogenous cMYC mRNA measured by RT-PCR (n = 8) after treatment of 7dF3 cells with 74 at the stated concentration for 2 h […]

Experiment [17] deals with PI3 KINASE (P110A(E542K)/P85A). In words: Millipore kinase panel. Type of experiment: biochemical. To be noted: 1 μM, ATP at Km. On the procedure:
as §1, §2, §3, §4, §5, §6, §7, §8, §9, §10, §11, §12, §13

Experiment [18] deals with PI3 KINASE (P110A(E545K)/P85A). The experiment in a line: Millipore kinase panel. Format: biochemical. As to conditions: 1 μM, ATP at Km. As to the method: as §1, §2, §3, §4, §5, §6, §7, §8, §9, §10, §11, §12, §13
Experiment [19] deals with PI3 KINASE (P110A(H1047R)/P85A). In words: Millipore kinase panel. Format: biochemical. To be noted: 1 μM, ATP at Km. As to the method: as §1, §2, §3, §4, §5, §6, §7, §8, §9, §10, §11, §12, §13
Experiment [20] deals with PI3 KINASE (P110A/P65A). The experiment in a line: Millipore kinase panel. To be noted: 1 μM, ATP at Km. Format: biochemical. As to the method:
as §1, §2, §3, §4, §5, §6, §7, §8, §9, §10, §11, §12, §13

The subject of experiment [21] is PI3 KINASE (P110B/P85A). In words: Millipore kinase panel. To be noted: 1 μM, ATP at Km. Format: biochemical. On the procedure: as §1, §2, §3, §4, §5, §6, §7, §8, §9, §10, §11, §12, §13
For experiment [22], the system named is PI3 KINASE (P110D/P85A). In words: Millipore kinase panel. To be noted: 1 μM, ATP at Km. Format: biochemical. As to the method: as §1, §2, §3, §4, §5, §6, §7, §8, §9, §10, §11, §12, §13
Experiment [23] deals with PI3 KINASE (P65A). The experiment in a line: Millipore kinase panel. As to conditions: 1 μM, ATP at Km. Type of experiment: biochemical. On the procedure:
as §1, §2, §3, §4, §5, §6, §7, §8, §9, §10, §11, §12, §13

Experiment [24] concerns PI3 KINASE (P85A). In words: Millipore kinase panel. Type of experiment: biochemical. To be noted: 1 μM, ATP at Km. On the procedure: as §1, §2, §3, §4, §5, §6, §7, §8, §9, §10, §11, §12, §13
For experiment [25], the target named is T15, FMS(Y969C) (Homo sapiens, UniProt P07333, Y969C).
T15 construct: purchased Millipore KinaseProfiler (kinases); Cerep (receptors and ion channels)
The experiment in a line: Millipore kinase panel. Type of experiment: biochemical. As to conditions: read-out: % Control.

T4 sequence (P00533 25-1210 L858R): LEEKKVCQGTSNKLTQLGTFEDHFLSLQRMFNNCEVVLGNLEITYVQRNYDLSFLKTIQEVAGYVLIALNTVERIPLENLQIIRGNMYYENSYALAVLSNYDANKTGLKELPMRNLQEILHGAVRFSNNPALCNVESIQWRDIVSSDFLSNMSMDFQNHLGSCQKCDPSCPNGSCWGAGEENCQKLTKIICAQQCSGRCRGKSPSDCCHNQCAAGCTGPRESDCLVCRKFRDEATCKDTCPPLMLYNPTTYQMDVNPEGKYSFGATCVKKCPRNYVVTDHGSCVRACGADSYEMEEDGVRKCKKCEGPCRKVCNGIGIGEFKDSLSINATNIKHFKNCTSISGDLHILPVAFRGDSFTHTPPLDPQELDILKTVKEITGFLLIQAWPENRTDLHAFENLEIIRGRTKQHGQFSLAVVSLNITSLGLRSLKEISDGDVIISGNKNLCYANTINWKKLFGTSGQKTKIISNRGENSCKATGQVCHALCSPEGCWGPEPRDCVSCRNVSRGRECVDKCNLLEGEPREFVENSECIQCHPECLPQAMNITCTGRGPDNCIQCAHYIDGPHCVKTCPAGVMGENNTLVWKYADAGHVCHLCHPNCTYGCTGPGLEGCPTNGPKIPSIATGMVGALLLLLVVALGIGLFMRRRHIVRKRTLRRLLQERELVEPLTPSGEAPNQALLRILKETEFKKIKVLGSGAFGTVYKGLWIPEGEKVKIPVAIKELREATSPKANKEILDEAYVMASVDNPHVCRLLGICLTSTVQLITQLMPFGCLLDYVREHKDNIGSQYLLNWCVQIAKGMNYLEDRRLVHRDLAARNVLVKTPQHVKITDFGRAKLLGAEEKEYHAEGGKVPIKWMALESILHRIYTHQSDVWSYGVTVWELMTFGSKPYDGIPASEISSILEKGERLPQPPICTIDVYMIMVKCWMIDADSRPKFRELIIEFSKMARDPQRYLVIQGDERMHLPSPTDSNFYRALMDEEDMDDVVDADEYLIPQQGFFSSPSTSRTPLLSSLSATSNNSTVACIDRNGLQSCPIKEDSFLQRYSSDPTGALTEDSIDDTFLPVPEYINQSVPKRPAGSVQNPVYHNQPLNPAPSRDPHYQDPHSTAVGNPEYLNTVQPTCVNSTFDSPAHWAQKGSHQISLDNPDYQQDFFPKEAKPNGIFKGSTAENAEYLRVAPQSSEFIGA
T13 sequence (P07949 29-1114 V804L): as the sequence (P07949 29-1114 V804M) above, with M776L counted along it

On to `O=C1NCCC12CCN(c1c(Cl)cncc1-c1ccc(N3CCOCC3)cc1)CC2` [Compound 44, 8-(3-Chloro-5-(4-morpholin-4-ylphenyl)pyridin-4-yl)-2,8-diazaspiro[4.5]decan-1-one], for which, in experiment [1], the remaining activity at 1 µM stood at 48%.

Regarding `Cn1cc(-c2ccc(-c3cncc(Cl)c3N3CCC4(CCNC4=O)CC3)cc2)cn1` [Compound 74, 8-(3-Chloro-5-(4-(1-methyl-1H-pyrazol-4-yl)phenyl)pyridin-4-yl)-2,8-diazaspiro[4.5]decan-1-one], the “effect on endogenous levels of TCF1 or TCF4” value in experiment [2] is reported as “did not affect endogenous levels of TCF1 or TCF4”. Also, the remaining activity at 1 µM was -9% in experiment [3]; 5% in experiment [4]; 1% in [5]; -8% in experiment [6]; -2% in experiment [7]; -13% in experiment [8]. Besides, the remaining activity at 1 µM was 1% in [9]; -6% in experiment [10]; -16% in [11]; -8% in [12]; 17% in [13]; -8% in experiment [14]. Also, the remaining activity at 1 µM in experiment [15] was -8%; in experiment [25] it was -31%. Further, the “% Control” value is given as -4% in experiment [16]; 0% in experiment [17]; -1% in [18]; 2% in experiment [19]; 0% in experiment [20]; -1% in experiment [21]. In addition, the “% Control” value in experiment [22] is reported as 0%; in experiment [23], 0%; in experiment [24], -1%.
